Assay results taken from US20250248979A1, “NOVEL GPX4 INHIBITORS AND USES THEREOF” (THE TRUSTEES OF COLUMBIA UNIVERSITY IN THE CITY OF NEW YORK, priority 2022, published 2025).

Target: T1, GPX4 (Homo sapiens, UniProt P36969)
T1 sequence (P36969 1-170 isoform P36969-2): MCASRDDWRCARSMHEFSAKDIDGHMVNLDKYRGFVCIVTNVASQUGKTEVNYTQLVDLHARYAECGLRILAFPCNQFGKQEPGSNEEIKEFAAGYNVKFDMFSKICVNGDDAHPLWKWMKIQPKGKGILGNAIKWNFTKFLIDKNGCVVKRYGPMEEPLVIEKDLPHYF
Test: GPX4 activity assay in cell lysates (NADPH-coupled)
Assay type: biochemical
Parameters: endogenous in cells; host or cells: A-673 cell lysate
Settings: 200 μM
Description: Determination of GPX4 activity in cell lysates was performed as previously described by Roveri et al. 1994 with minor modifications. Briefly, the assay measures the consumption of NADPH, which has a characteristic absorbance at 340 nm, over time as a proxy for GPX4 activity. The rationale for this is that as GPX4 reduces phospholipid hydroperoxides, it oxidizes glutathione, which is then regenerated by glutathione reductase at the expense of NADPH. NADPH is added to the assay in excess such that the reduction of oxidized glutathione is not the rate-limiting reaction in the assay. Thus, the resulting reduction in NADPH absorbance over time reflects GPX4 activity.
The GPX4-specific substrate phosphatidylcholine hydroperoxide (PCOOH) was prepared by enzymatic hydroperoxidation. Specifically, 0.3 mM phosphatidylcholines (Sigma-Aldrich) were incubated with 0.7 mg soybean lipoxidase type IV (Sigma-Aldrich) in 22 mL of 0.2 M Tris-HCl pH 8.8 with 3 mM sodium deoxycholate at room temperature under continuous stirring for 30 minutes. A Sep-Pak C18 cartridge (Waters-Millipore) was pre-washed with methanol and equilibrated with water, then the substrate mixture was loaded. The column was washed with 10 volumes of water and PCOOH was eluted with 2 mL of methanol.
To prepare the cell lysate containing native GPX4, A-673 cells were cultured with 20 nM sodium selenite to confluency over two days then harvested and washed with cold PBS. Cells were then resuspended at 10 million cells per 1 mL LCW lysis buffer (0.5% peroxide-free Triton X-100, 0.5% sodium deoxycholate salt, 150 mM NaCl, 20 mM Tris-HCl pH 7.5, 10 mM EDTA, 30 mM sodium pyrophosphate, and complete protease inhibitor cocktail), vortexed for 30 seconds, and incubated on ice for 15 minutes. After lysis, the lysates were centrifuged at 14,000×g and 4° C. for 15 minutes. The supernatants were transferred to new pre-chilled tube and the debris pellet was discarded. The protein concentration in the lysate was determined for normalization using the BCA Protein Assay Kit (Pierce).
To measure GPX4 activity, 50 μL of cell lysate was combined with 200 μL activity assay buffer (0.1% Triton X-100, 100 mM Tris-HCl pH 8.0, 10 mM sodium azide, 5 mM EDTA, 0.6 IU/mL glutathione reductase, 0.5 mM NADPH and 3 mM GSH) and compounds of interest in a clear 96-well plate and incubated at 37° C. for 45 minutes. Compounds were dissolved in DMSO. All conditions were tested in triplicate. PCOOH substrate was added to the mixture to initiate GPX4 activity just before reading the plate. The absorbance of NADPH at 340 nm was monitored kinetically over time for 25 minutes. Buffer-only controls and controls without substrate containing only the methanol vehicle were performed to assess background and baseline signal. GPX4 activity was calculated as previously reported by Stolwijk et al. 2020 and results were analyzed in GraphPad Prism 9.

[1] = generation 1, mean ± s.d., n = 3

| SMILES | GPX4% inhibition at 200 (μM) [1] [%] | other results |
| --- | --- | --- |
| O=C(c1cc2cc(Cl)ccc2[nH]1)n1ccnc1 [QW-002] | – | GPX4% inhibition at 200 (μM) (mean ± s.d., n = 3): 18.7 ± 15.8% |
| O=C(c1cc2cc([N+](=O)[O-])ccc2[nH]1)n1ccnc1 [QW-049] | – | GPX4% inhibition at 200 (μM) (mean ± s.d., n = 3): −2.6 ± 14.6% |
| Cc1ccc2[nH]c(C(=O)n3ccnc3)cc2c1 [QW-056] | – | GPX4% inhibition at 200 (μM) (mean ± s.d., n = 3): 32.7 ± 18.4% |
| O=C(c1c[nH]c2ccccc12)n1ccnc1 [QW-058] | – | GPX4% inhibition at 200 (μM) (mean ± s.d., n = 3): 37.8 ± 0.9% |
| O=C(c1cc2ccccc2[nH]1)n1ccnc1 [QW-064] | – | GPX4% inhibition at 200 (μM) (mean ± s.d., n = 3): 31.9 ± 16.6% |
| COc1cccc2[nH]c(C(=O)NC(C)(C)COC(=O)CBr)cc12 [QW-159] | 56.0 ± 7.3 | – |
| CC(C)(COC(=O)CBr)NC(=O)c1cc2ccccc2[nH]1 [QW-160] | 33.3 ± 6.0 | – |
| Cc1ccc2[nH]c(C(=O)NC(C)(C)COC(=O)CBr)cc2c1 [QW-161] | 65.0 ± 7.2 | – |
| COc1ccc2cc(C(=O)NC(C)(C)COC(=O)CBr)[nH]c2c1 [QW-162] | 103.8 ± 7.6 | – |
| CC(C)(COC(=O)CBr)NC(=O)c1cc2cc(Cl)ccc2[nH]1 [QW-165] | 73.9 ± 5.3 | – |
| C=CC(=O)OCC(C)(C)NC(=O)c1cc2ccccc2[nH]1 [QW-166] | 1.8 ± 8.0 | – |
| C=CC(=O)OCC(C)(C)NC(=O)c1cc2cc(Cl)ccc2[nH]1 [QW-167] | 7.8 ± 12.8 | – |
| C=CC(=O)OCC(C)(C)NC(=O)c1cc2c(OC)cccc2[nH]1 [QW-168] | −8.8 ± 10.8 | – |
| C=CC(=O)OCC(C)(C)NC(=O)c1cc2ccc(Br)cc2[nH]1 [QW-169] | 14.0 ± 8.6 | – |
| C=CC(=O)OCC(C)(C)NC(=O)c1cc2cc(C)ccc2[nH]1 [QW-170] | 5.3 ± 10.0 | – |
| C=CC(=O)OCC(C)(C)NC(=O)c1cc2cc([N+](=O)[O-])ccc2[nH]1 [QW-172] | 16.1 ± 16.0 | – |
| CC(C)(COC(=O)CCl)NC(=O)c1cccs1 [QW-259] | 27.7 ± 26.1 | – |
| CC(C)(COC(=O)CBr)NC(=O)c1cccs1 [QW-260] | 41.1 ± 4.6 | – |
| C=CC(=O)OCC(C)(C)NC(=O)c1cccs1 [QW-261] | 23.2 ± 17.0 | – |
| Cc1onc(C(=O)OCC(C)(C)NC(=O)c2cccs2)c1[N+](=O)[O-] [QW-262] | −0.6 ± 7.8 | – |
| CC(C)(COC(=O)CCl)NC(=O)Cc1cc2ccccc2[nH]1 [QW-265] | 61.2 ± 11.3 | – |
| CC(C)(COC(=O)CBr)NC(=O)Cc1cc2ccccc2[nH]1 [QW-266] | 48.8 ± 3.3 | – |
| C=CC(=O)OCC(C)(C)NC(=O)Cc1cc2ccccc2[nH]1 [QW-267] | 14.7 ± 5.7 | – |
| Cc1onc(C(=O)OCC(C)(C)NC(=O)Cc2cc3ccccc3[nH]2)c1[N+](=O)[O-] [QW-268] | −8.0 ± 15.8 | – |
| CC(C)(COC(=O)CCl)NC(=O)c1n[nH]c2ccccc12 [QW-296] | – | GPX4% inhibition at 200 (μM) (generation 2): 83.1 ± 21.9% |
| CC(C)(COC(=O)CBr)NC(=O)c1n[nH]c2ccccc12 [QW-297] | – | GPX4% inhibition at 200 (μM) (generation 2): 73.1 ± 14.6% |
| C=CC(=O)OCC(C)(C)NC(=O)c1n[nH]c2ccccc12 [QW-298] | – | GPX4% inhibition at 200 (μM) (generation 2): 7.9 ± 8.2% |
| Cc1onc(C(=O)OCC(C)(C)NC(=O)c2n[nH]c3ccccc23)c1[N+](=O)[O-] [QW-299] | – | GPX4% inhibition at 200 (μM) (generation 2): 6.3 ± 4.7% |
| COc1ccc2c(C(=O)NC(C)(C)COC(=O)CCl)n[nH]c2c1 [QW-326] | – | GPX4% inhibition at 200 (μM) (generation 2): 84.3 ± 8.9% |
| Cn1nc(C(=O)N2CCN(C(=O)CCl)CC2)c2ccc(Br)cc21 [QW-330] | – | GPX4% inhibition at 200 (μM) (generation 2): 33.2 ± 6.8% |

Second part, led by results:

| GPX4% inhibition at 200 (μM) [1] [%] | SMILES | other results |
| --- | --- | --- |
| 65.5 ± 1.6 | CC(C)(COC(=O)CCl)NC(=O)CCc1cc2ccccc2[nH]1 [QW-270] | – |
| 40.2 ± 5.2 | CC(C)(COC(=O)CBr)NC(=O)CCc1cc2ccccc2[nH]1 [QW-271] | – |
| 27.5 ± 4.4 | CC(C)(COC(=O)CCl)NC(=O)c1cc2ccccc2s1 [QW-274] | – |
| 63.1 ± 3.6 | CC(C)(COC(=O)CBr)NC(=O)c1cc2ccccc2s1 [QW-275] | – |
| 5.9 ± 4.4 | C=CC(=O)OCC(C)(C)NC(=O)c1cc2ccccc2s1 [QW-276] | – |
| 12.4 ± 20.1 | Cc1onc(C(=O)OCC(C)(C)NC(=O)c2cc3ccccc3s2)c1[N+](=O)[O-] [QW-277] | – |
| 75.9 ± 15.5 | CC(C)(COC(=O)CCl)NC(=O)c1c[nH]c2ccccc12 [QW-280] | GPX4 inhibition: 76% |
| 58.7 ± 11.5 | CC(C)(COC(=O)CBr)NC(=O)c1c[nH]c2ccccc12 [QW-281] | – |
| 12.7 ± 4.7 | C=CC(=O)OCC(C)(C)NC(=O)c1c[nH]c2ccccc12 [QW-282] | – |
| −6.6 ± 8.5 | Cc1onc(C(=O)OCC(C)(C)NC(=O)c2c[nH]c3ccccc23)c1[N+](=O)[O-] [QW-283] | – |
| 71.0 ± 22.2 | COc1ccc2cc(C(=O)NC(C)(C)CCOC(=O)CCl)[nH]c2c1 [QW-284] | – |
| 77.9 ± 7.6 | COc1ccc2cc(C(=O)NC(C)(C)CCOC(=O)CBr)[nH]c2c1 [QW-285] | – |
| 11.5 ± 7.1 | C=CC(=O)OCCC(C)(C)NC(=O)c1cc2ccc(OC)cc2[nH]1 [QW-286] | – |
| 20.6 ± 9.0 | CC(C)(COC(=O)CCl)NC(=O)c1ccc[nH]1 [QW-290] | – |
| 20.0 ± 4.0 | CC(C)(COC(=O)CBr)NC(=O)c1ccc[nH]1 [QW-291] | – |
| 7.9 ± 5.3 | C=CC(=O)OCC(C)(C)NC(=O)c1ccc[nH]1 [QW-292] | – |
| −13.1 ± 14.6 | Cc1onc(C(=O)OCC(C)(C)NC(=O)c2ccc[nH]2)c1[N+](=O)[O-] [QW-293] | – |
| 3.3 ± 1.2 | C=CC(=O)OCCNC(=O)c1cc2ccc(OC)cc2[nH]1 [QW-301] | – |
| 68.9 ± 1.8 | COc1ccc2cc(C(=O)NCC(C)(C)COC(=O)CCl)[nH]c2c1 [QW-302] | – |
| 78.3 ± 4.3 | O=C(CCl)OCCCNC(=O)c1cc2cc(Cl)ccc2[nH]1 [QW-304] | – |
| 6.2 ± 7.5 | C=CC(=O)OCCCNC(=O)c1cc2cc(Cl)ccc2[nH]1 [QW-306] | – |
| 84.3 ± 9.3 | COc1ccc2cc(C(=O)NC(C)(C)COC(=O)CCl)n(C)c2c1 [QW-320] | – |
| 90.3 ± 4.8 | Cn1c(C(=O)NC(C)(C)COC(=O)CCl)cc2ccc(Br)cc21 [QW-321] | – |
| 16.0 ± 4.9 | COc1ccc2[nH]cc(C(=O)NC(C)(C)COC(=O)CCl)c2c1 [QW-322] | – |
| 76.6 ± 3.9 | Cn1cc(C(=O)NC(C)(C)COC(=O)CCl)c2ccc(Br)cc21 [QW-325] | – |
| 67.2 ± 3.4 | Cn1cc(C(=O)NC(C)(C)COC(=O)C#C[Si](C)(C)C)c2ccc(Br)cc21 [QW-337] | – |
| 42.6 ± 7.0 | CC(C)(COC(=O)CCl)NC(=O)c1cc2cc(F)ccc2[nH]1 [QW-338] | – |
| 43.4 ± 11.5 | CC(C)(COC(=O)CCl)NC(=O)c1cc2cc(F)c(F)cc2[nH]1 [QW-339] | – |
| 69.6 ± 6.2 | CC(C)(COC(=O)CCl)NC(=O)c1cc2ccc(F)cc2[nH]1 [QW-353] | – |
